In the supplement of paper PMC10307832:

Key:
Assay in all cases: relative viability (nuclei count vs DMSO), 5 days (fraction); higher = more cells survive
Sulindac + Dasatinib = compound: CC1=C(CC(=O)O)c2cc(F)ccc2/C1=C\c1ccc([S+](C)[O-])cc1 [Sulindac] + Cc1nc(Nc2ncc(C(=O)Nc3c(C)cccc3Cl)s2)cc(N2CCN(CCO)CC2)n1 [Dasatinib] (partner 0.075 µM)
Outline: (§1)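 One day after seeding in 1536-well plates, lung cancer cell lines were dosed by pin tool. Dosing was either single-drug or a fixed anchor-drug dose plus five library-drug doses (not always all listed) in √10 steps. After 5 days, nuclei were stained in one fix-and-stain step and counted on 4× images, and relative viability is the nuclei count of treated wells over that of vehicle wells, given as the median of duplicate plates.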

Staurosporine + OSI-027 = compound: CN[C@@H]1C[C@H]2O[C@@](C)([C@@H]1OC)n1c3ccccc3c3c4c(c5c6ccccc6n2c5c31)C(=O)NC4 [Staurosporine] + COc1cccc2cc(-c3nc([C@H]4CC[C@H](C(=O)O)CC4)n4ncnc(N)c34)[nH]c12 [OSI-027] (partner 0.5 µM)
Outline: as §1

Sulindac + Alpelisib = compound: CC1=C(CC(=O)O)c2cc(F)ccc2/C1=C\c1ccc([S+](C)[O-])cc1 [Sulindac] + Cc1nc(NC(=O)N2CCC[C@H]2C(N)=O)sc1-c1ccnc(C(C)(C)C(F)(F)F)c1 [Alpelisib] (partner 2 µM)
Outline: as §1

[1] = compound: CN[C@@H]1C[C@H]2O[C@@](C)([C@@H]1OC)n1c3ccccc3c3c4c(c5c6ccccc6n2c5c31)C(=O)NC4 [Staurosporine] + Nc1nc2[nH]cc(CCc3ccc(C(=O)N[C@@H](CCC(=O)O)C(=O)O)cc3)c2c(=O)[nH]1 [Pemetrexed] (partner 0.2 µM)
Outline: as §1

Cell Line	relative viability (Sulindac + Dasatinib; first compound 0.08 µM)	relative viability (Sulindac + Dasatinib; first compound 0.253 µM)	relative viability (Sulindac + Dasatinib; first compound 2.53 µM)	relative viability (Sulindac + Dasatinib; first compound 8 µM)	relative viability (Staurosporine + OSI-027; first compound 0.005 µM)	relative viability (Staurosporine + OSI-027; first compound 0.01581 µM)	relative viability (Staurosporine + OSI-027; first compound 0.05 µM)	relative viability (Staurosporine + OSI-027; first compound 0.1581 µM)	relative viability (Staurosporine + OSI-027; first compound 0.5 µM)	relative viability (Sulindac + Alpelisib; first compound 0.08 µM)	relative viability (Sulindac + Alpelisib; first compound 0.253 µM)	relative viability (Sulindac + Alpelisib; first compound 2.53 µM)	relative viability (Sulindac + Alpelisib; first compound 8 µM)	relative viability ([1]; first compound 0.005 µM)	relative viability ([1]; first compound 0.01581 µM)	relative viability ([1]; first compound 0.05 µM)	relative viability ([1]; first compound 0.1581 µM)	relative viability ([1]; first compound 0.5 µM)	relative viability (Sulindac + Dasatinib; first compound 0.8 µM)	relative viability (Sulindac + Alpelisib; first compound 0.8 µM)
PC-14	0.25	0.293	0.222	0.369	0.325	0.0499	0.0618	0.0552	0.0305	0.986	1.16	1.13	1	0.159	0.131	0.0585	0.0487	0.048	–	–
LCLC-97TM1	0.996	0.951	0.711	0.998	0.343	0.234	0.245	0.203	0.198	0.272	0.278	–	0.236	0.185	0.111	0.186	0.149	0.117	0.637	0.238
BEN	0.311	0.317	0.288	0.384	0.386	0.287	0.275	0.247	0.193	1.09	1.22	1	1.15	0.831	0.749	0.523	0.261	0.303	0.314	0.831
NCI-H2085	0.209	0.219	0.238	0.213	0.597	0.168	0.249	0.155	0.148	1.02	0.963	1.02	0.922	0.635	0.307	0.429	0.206	0.242	0.27	0.935
LC-2-ad	0.584	0.718	0.418	0.839	0.807	0.25	0.342	0.216	0.199	0.886	0.913	0.917	0.974	0.277	0.21	0.209	0.102	0.0993	0.337	0.86
NCI-H661	0.966	0.842	0.807	1.08	0.641	0.413	0.346	0.201	0.166	0.639	0.551	0.621	0.725	0.901	0.667	0.542	0.353	0.186	0.759	0.535
NCI-H1792	0.881	0.867	0.812	0.914	–	0.635	0.347	0.282	0.323	0.959	0.717	0.726	0.866	0.28	0.0706	0.0856	0.056	0.0352	–	–
EPLC-272H	0.424	0.377	0.358	0.332	0.29	0.142	0.163	0.0783	0.0871	0.759	–	0.985	1.03	0.213	0.13	0.146	0.0971	0.0691	–	0.618
NCI-H1437	0.405	0.462	0.399	0.444	0.744	–	0.587	0.183	0.181	1.25	0.905	0.946	1.17	0.268	0.214	0.182	0.17	0.131	0.293	0.733
EKVX	0.414	0.524	0.479	0.476	0.557	0.399	0.284	0.209	0.15	0.819	0.824	0.997	1.04	0.197	0.139	0.189	0.255	0.141	–	0.721
NCI-H1651	0.475	0.539	0.419	0.777	0.523	0.396	0.304	0.114	0.129	1.2	1.1	0.911	1.3	0.613	0.426	0.274	0.156	0.159	–	0.874
HCC-15	0.674	0.614	0.573	0.656	0.565	–	0.296	0.113	0.0919	0.989	0.957	0.828	0.968	0.217	0.188	0.189	0.157	0.134	0.544	0.813
LCLC-103H	0.5	0.477	0.458	0.508	0.531	0.219	0.168	0.194	0.153	1.06	1.07	0.869	1.09	0.405	0.238	0.336	0.247	0.213	0.376	0.892
NCI-H2347	0.282	0.25	0.303	0.275	0.385	0.229	0.171	0.277	0.238	1.22	1.05	1.04	1.17	0.36	0.321	0.32	0.329	0.291	–	0.938
NCI-H1915	0.345	0.335	0.291	0.322	0.448	0.115	0.193	0.0877	0.111	1.05	1.11	1.04	1.12	0.486	0.231	0.219	0.15	0.0886	–	0.999
NCI-H650	0.52	0.462	0.466	0.47	0.34	0.271	0.257	0.277	0.255	1.05	1.1	1.02	1.17	0.64	0.257	0.235	0.23	0.228	0.469	0.578
